The values that follow are results of earlier work, collected in patent US6977083B1, “Bioadhesive tablet containing testosterone/testosterone ester mixtures and method for producing a predetermined testosterone time-release profile with same” (Jenapharm GmbH & Co. KG, priority 1998, dated 2005).

For the data set the following is noted: after oral or parenteral administration.

The structures appear in SMILES notation.

As to `C[C@]12CC[C@H]3[C@@H](CCC4=CC(=O)CC[C@@]43C)[C@@H]1CC[C@@H]2O` [testosterone], the plasma half-life entry is on record as “about 10 minutes”.
